Test results taken from ChEMBL document CHEMBL3875217, “Identification of a melampomagnolide B analog as a potential lead molecule for treatment of acute myelogenous leukemia” (Bioorg Med Chem, 2017).
One block for each compound: values may come before it.

What was measured:
[1] = Antileukemic activity against human M9-ENL1 cells assessed as increase in apoptotic cell level after 24 hrs by Annexin V/propidium iodide/7-AAD based FACS analysis; assay type: functional; details: M9-ENL1, 24 h
[2] = Oral bioavailability in BALB/c mouse at 271.2 mg/kg by LC/MS/MS analysis; assay type: ADME, organism-based; details: in vivo
[3] = Cmax in BALB/c mouse at 271.2 mg/kg, po by LC/MS/MS analysis; assay type: ADME, organism-based; design: dose 271.2 mg/kg, route oral; details: in vivo
[4] = Total clearance in BALB/c mouse at 27.1 mg/kg, iv or 271.2 mg/kg, po by LC/MS/MS analysis; assay type: ADME, organism-based; details: in vivo
[5] = Drug uptake in BALB/c mouse blood at 271.2 mg/kg, po after 15 mins by LC/MS/MS analysis; assay type: ADME, organism-based; details: in vivo, 0.25 h
[6] = AUC in BALB/c mouse at 200 mg/kg, po by LC/MS/MS analysis; assay type: ADME, organism-based; details: in vivo
[7] = Drug uptake in BALB/c mouse Plasma at 271.2 mg/kg, po after 15 mins by LC/MS/MS analysis; assay type: ADME, organism-based; details: in vivo, 0.25 h
[8] = Tmax in BALB/c mouse at 271.2 mg/kg, po by LC/MS/MS analysis; assay type: ADME, organism-based; details: in vivo
[9] = Apparent elimination half life in BALB/c mouse at 271.2 mg/kg, po by LC/MS/MS analysis; assay type: ADME, organism-based; details: in vivo
[10] = Potency index, ration of parthenolide EC50 to compound EC50 for human M9-ENL1 cells; assay type: functional
[11] = Tmax in BALB/c mouse at 200 mg/kg, po by LC/MS/MS analysis; assay type: ADME, organism-based; details: in vivo
[12] = Oral bioavailability in BALB/c mouse at 200 mg/kg by LC/MS/MS analysis; assay type: ADME, organism-based; details: in vivo
[13] = Apparent elimination half life in BALB/c mouse at 200 mg/kg, po by LC/MS/MS analysis; assay type: ADME, organism-based; details: in vivo
[14] = Drug uptake in BALB/c mouse blood at 200 mg/kg, po after 15 mins by LC/MS/MS analysis; assay type: ADME, organism-based; details: in vivo, 0.25 h
[15] = Total clearance in BALB/c mouse at 20 mg/kg, iv or 200 mg/kg, po by LC/MS/MS analysis; assay type: ADME, organism-based; details: in vivo
[16] = Cmax in BALB/c mouse at 200 mg/kg, po by LC/MS/MS analysis; assay type: ADME, organism-based; design: dose 200 mg/kg, route oral; details: in vivo

Compound: C=C1C(=O)O[C@H]2[C@H]1CC/C(COC(=O)NCc1nc3ccccc3[nH]1)=C\CC[C@@]1(C)O[C@@H]21
EC50 [1]: 3900 nM

Compound: C=C1C(=O)O[C@H]2[C@H]1CC/C(COC(=O)n1ccnc1C)=C\CC[C@@]1(C)O[C@@H]21
EC50 [1]: 2100 nM

Compound: C=C1C(=O)O[C@H]2[C@H]1CC/C(COC(=O)Nc1nc3ccccc3[nH]1)=C\CC[C@@]1(C)O[C@@H]21
EC50 [1]: 1600 nM

Compound: C=C1C(=O)O[C@@H]2[C@H]3O[C@]3(C)CC/C=C(\C)CC[C@@H]12
EC50 [1]: 7000 nM

Compound: C=C1C(=O)O[C@H]2[C@H]1CC/C(CO)=C\CC[C@@]1(C)O[C@@H]21
Tmax [11]: 2 h
F [12]: 6.7%
betat1/2(app) [13]: 61.8 min
EC50 [1]: 15500 nM
Drug uptake [14]: Active
clearance [15]: 70 mL/min/kg
AUC [6]: 868.3 µmol·min/L
Cmax [16]: 4.5 µM

These reach a lower EC50 [1]. Values come first.

EC50 [1]: 1400 nM
Compound: C=C1C(=O)O[C@H]2[C@H]1CC/C(COC(=O)n1cc(C)nc1CC)=C\CC[C@@]1(C)O[C@@H]21

F [2]: 45.5%
Cmax [3]: 10.6 µM
clearance [4]: 200 mL/min/kg
EC50 [1]: 900 nM
Drug uptake [5]: Active
AUC [6]: 2137.5 µmol·min/L
Drug uptake [7]: Active
Tmax [8]: 30.1 min
betat1/2(app) [9]: 92.3 min
Compound: C=C1C(=O)O[C@H]2[C@H]1CC/C(COC(=O)n1ccnc1)=C\CC[C@@]1(C)O[C@@H]21
Ratio EC50 [10]: 8
